# According to BindingDB's records for patent US20250091994 (Kobe University, 2025):
# Target: GTPase HRas [G12V] (Homo sapiens, UniProt P01112, G12V)
# Test: In Vitro Ras-Raf Binding Inhibitory Activity Assay
# Procedure: The in vitro Ras-Raf binding inhibitory activity of the compound of the present invention was evaluated by an ELISA method described below. GST-c-Raf-1 RBD diluted with a Ras-Raf binding buffer (50 mM Tris-HCl pH7.4, 150 mM NaCl, 5 mM MgCl2, 1 mM EDTA, and 1% Triton-X100) was added to each well of a glutathione-coated 96-well plate (Thermo Fisher Scientific.), and was incubated at 30° C. for 1 hour, to immobilize Raf on the well. The unbound free Raf was eliminated by washing the well with the Ras-Raf binding buffer three times. Subsequently, GTPTS-bound HRasG12V diluted with the Ras-Raf binding buffer and each compound solution (final DMSO concentration: 10%) were applied to each well, and the resulting mixture was then incubated at 30° C. for 1 hour, so that Ras and Raf were allowed to bind to each other. Thereafter, the plate was washed with the Ras-Raf binding buffer twice, and was then subjected to a blocking treatment at room temperature for 20 minutes, using TBS-Tween {10 mM Tris-HCl pH 7.4, 150 mM NaCl, and 0.05% (w/v) Tween-20}-5% (w/v) bovine serum albumin (BSA). After that, an anti-HRas antibody (C-20, Santa Cruz) or an anti-HRas antibody (259, Santa Cruz), which had been 1000 times diluted with TBS-Tween-5% BSA, was added to the reaction mixture, and incubated at room temperature for 1 hours. After the treatment with the primary antibody, the plate was washed with TBS-Tween-5% BSA three times, and a horseradish peroxidase-labeled secondary antibody against rabbit immunoglobulin G (GE Healthcare) of 1000 times diluted with TBS-Tween-5% BSA, was added to the plate, followed by incubation at room temperature for 1 hour. After the treatment with the secondary antibody, the plate was washed with TBS-Tween-5% BSA three times, and a substrate solution (TMB) was then added to the plate, followed by incubation at room temperature for 15 minutes for coloration. Finally, 2 M H2SO4 was added to stop color development (coloration reaction kit: Nacalai Tesque).
# Chain of GTPase HRas [G12V] (P01112 whole entry G12V, looked up): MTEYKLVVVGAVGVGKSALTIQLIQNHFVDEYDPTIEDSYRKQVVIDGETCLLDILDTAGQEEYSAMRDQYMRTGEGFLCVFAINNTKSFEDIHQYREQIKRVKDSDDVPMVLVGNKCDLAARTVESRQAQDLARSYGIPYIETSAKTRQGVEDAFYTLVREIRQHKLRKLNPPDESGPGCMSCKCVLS
row,IC50 [nM],SMILES
1,6900,"COc1cc(/C=C2/C(=O)c3ccccc3N2C(C)=O)ccc1OCC(N)=O [US20250091994, Example 1]"
2,7900,"COc1cc(/C=C2/C(=O)c3ccccc3N2C(C)=O)ccc1OCC(=O)N1CCOCC1 [US20250091994, Example 2]"
3,2500,"CCOc1cc(/C=C2/C(=O)c3ccccc3N2C(C)=O)ccc1OCC(N)=O [US20250091994, Example 13]"
4,5700,"COc1cc(/C=C2/C(=O)c3ccccc3N2C(C)=O)ccc1OCC(=O)N1CCCC1 [US20250091994, Example 14]"
5,7300,"COc1cc(/C=C2/C(=O)c3ccccc3N2C(C)=O)ccc1OCC(=O)Nc1ccccc1 [US20250091994, Example 15]"
6,9600,"CC(=O)N1C(=Cc2ccc(OCC(N)=O)c(Cl)c2)C(=O)c2ccccc21 [US20250091994, Example 17]"
7,10000,"COc1cc(/C=C2/C(=O)c3ccccc3N2C(C)=O)ccc1/C=C/C(N)=O [US20250091994, Example 20]"
8,7200,"COc1cc(/C=C2/C(=O)c3ccccc3N2C(C)=O)ccc1OS(C)(=O)=O [US20250091994, Example 21]"
9,13000,"CC(=O)N1/C(=C\c2ccc(OCC(=O)N3CCOCC3)cn2)C(=O)c2ccccc21 [US20250091994, Example 22]"
10,2100,"COc1cc(/C=C2/C(=O)c3ccccc3N2C(C)=O)ccc1OCS(C)(=O)=O [US20250091994, Example 24]"
11,5900,"COc1cc(/C=C2/C(=O)c3ccccc3N2C(C)=O)ccc1OC[S+](C)[O-] (configuration not stated) [US20250091994, Example 25]"
12,2700,"COc1cc(/C=C2/C(=O)c3ccccc3N2C(C)=O)ccc1NC(=O)CN1CCOCC1 [US20250091994, Example 27]"
13,13000,"CC(=O)N1C(=Cc2ccc(OCC(=O)N3CCOCC3)c(-c3ccccc3)c2)C(=O)c2ccccc21 [US20250091994, Example 29]"
14,13000,"COc1cc(/C=C2/C(=O)c3ccccc3N2C(C)=O)ccc1CCC(N)=O [US20250091994, Example 31]"
15,2800,"CC(=O)N1/C(=C\c2ccc3cc(C#N)ccc3n2)C(=O)c2ccccc21 [US20250091994, Example 34]"
16,13000,"COc1cc(/C=C2/C(=O)c3ccccc3N2C(=O)c2ccccc2)ccc1OCC(N)=O [US20250091994, Example 49]"
17,12000,"COc1cc(/C=C2/C(=O)c3cc(F)ccc3N2C(C)=O)ccc1OCC(=O)N1CCOCC1 [US20250091994, Example 50]"
18,570,"CC(=O)N1/C(=C/c2nc3ccc(CNS(C)(=O)=O)cc3s2)C(=O)c2ccccc21 [US20250091994, Example 56]"
19,2000,"CC(=O)NCc1ccc2nc(/C=C3/C(=O)c4ccccc4N3C(C)=O)ccc2c1 [US20250091994, Example 63]"
20,2400,"CC(=O)N1/C(=C\c2ccc3cc(OCC(=O)N4CCOCC4)ccc3n2)C(=O)c2ccccc21 [US20250091994, Example 65]"
21,2300,"CC(=O)N1C(=Cc2ccc3cc(C(=O)N4CCOCC4)ccc3c2)C(=O)c2ccccc21 [US20250091994, Example 66]"
22,5600,"CC(=O)N1C(=Cc2ccc(C(=O)N3CCOCC3)cc2)C(=O)c2ccccc21 [US20250091994, Example 67]"
23,10000,"COc1cc(C=C2C(=O)c3ccc(F)cc3N2C(C)=O)ccc1OCC(=O)N1CCOCC1 [US20250091994, Example 103]"
24,9000,"COc1cc(C=C2C(=O)c3c(F)cccc3N2C(C)=O)ccc1OCC(=O)N1CCOCC1 [US20250091994, Example 104]"

# The next lines start with the compound.
row,SMILES,IC50 [nM]
1,"CC(=O)N1C(=Cc2ccc3cc(C(=O)N4CCOCC4)ccc3n2)C(=O)c2ccccc21 [US20250091994, Example 28]",880
2,"CC(=O)N1/C(=C\c2ncc(C(=O)N3CCOCC3)s2)C(=O)c2ccccc21 [US20250091994, Example 38]",3700
3,"CC(=O)N1/C(=C\c2ccc3cc(C(=O)N4CCN(C5COC5)CC4)ccc3n2)C(=O)c2ccccc21 [US20250091994, Example 41]",4700
4,"COCC(O)CN1CCN(C(=O)c2ccc3nc(/C=C4/C(=O)c5ccccc5N4C(C)=O)ccc3c2)CC1 (configuration not stated) [US20250091994, Example 42]",2800
5,"CC(=O)N1/C(=C/c2nc3ccc(/C=C/S(=O)(=O)N4CCOCC4)cc3s2)C(=O)c2ccccc21 [US20250091994, Example 43]",7100
6,"CC(=O)N1/C(=C\c2ccc3cc(C(=O)N4CC(C)OC(C)C4)ccc3n2)C(=O)c2ccccc21 (configuration not stated) [US20250091994, Example 44]",960
7,"CC(=O)N1/C(=C\c2ccc3cc(CCC(=O)N4CCOCC4)ccc3n2)C(=O)c2ccccc21 [US20250091994, Example 45]",1200
8,"CC(=O)N1/C(=C/c2nc3cc(C(=O)N4CCOCC4)ccc3s2)C(=O)c2ccccc21 [US20250091994, Example 48]",3500
9,"COc1cc(/C=C2/C(=O)c3cccnc3N2C(C)=O)ccc1OCC(=O)N1CCOCC1 [US20250091994, Example 51]",2100
10,"CC(=O)N1/C(=C/c2nc(C(=O)N3CCOCC3)cs2)C(=O)c2ccccc21 [US20250091994, Example 55]",6400
11,"CC(=O)N1/C(=C/c2nc3ccc(C(=O)N4CCOCC4)cc3s2)C(=O)c2ccccc21 [US20250091994, Example 58]",700
12,"CC(=O)N1/C(=C\c2nc3ccc(C(=O)N4CCOCC4)cc3s2)C(=O)c2ccccc21 [US20250091994, Example 59]",4000
13,"CC(=O)N1C(=Cc2ccc3ccc(C(=O)N4CCOCC4)cc3n2)C(=O)c2ccccc21 [US20250091994, Example 62]",5600
14,"CC(=O)N1C(=Cc2ccc3cc(CNS(C)(=O)=O)ccc3n2)C(=O)c2ccccc21 [US20250091994, Example 64]",1100
15,"CC(=O)N1/C(=C/c2ncc(C(=O)N3CCOCC3)s2)C(=O)c2ccccc21 [US20250091994, Example 68]",2300
16,"CC(=O)N1/C(=C\c2ccc3cc(CN(C(C)=O)C4CCOCC4)ccc3n2)C(=O)c2ccccc21 [US20250091994, Example 75]",2100
17,"CC(=O)N1/C(=C\c2ccc3cc(CN(C4CCOCC4)S(C)(=O)=O)ccc3n2)C(=O)c2ccccc21 [US20250091994, Example 76]",1600

row,SMILES,IC50 [nM]
1,"CC(=O)N1C(=Cc2ccc3cc(/C=C/C(=O)NC4CCN(C5COC5)CC4)ccc3n2)C(=O)c2ccccc21 [US20250091994, Example 79]",1100
2,"CC(=O)N1/C(=C\c2ccc3cc(CNC(=O)CN4CCOCC4)ccc3n2)C(=O)c2ccccc21 [US20250091994, Example 80]",900
3,"CC(=O)N1/C(=C\c2cc(N=[N+]=[N-])c3cc(C(=O)N4CCOCC4)ccc3n2)C(=O)c2ccccc21 [US20250091994, Example 81]",1100
4,"CC(=O)N1/C(=C\c2cc(Cl)c3cc(C(=O)N4CCOCC4)ccc3n2)C(=O)c2ccccc21 [US20250091994, Example 82]",610
5,"CC(=O)N1C(=Cc2cc(-c3ccccc3)c3cc(C(=O)N4CCOCC4)ccc3n2)C(=O)c2ccccc21 [US20250091994, Example 83]",840
6,"CCCCOc1cc(/C=C2/C(=O)c3ccccc3N2C(C)=O)nc2ccc(C(=O)N3CCOCC3)cc12 [US20250091994, Example 84]",580
7,"CC(=O)N1/C(=C\c2cc(-c3cccnc3)c3cc(C(=O)N4CCOCC4)ccc3n2)C(=O)c2ccccc21 [US20250091994, Example 85]",580
8,"CC(=O)N1/C(=C\c2cc(C#N)c3cc(C(=O)N4CCOCC4)ccc3n2)C(=O)c2ccccc21 [US20250091994, Example 86]",1800
9,"CC(=O)N1/C(=C\c2cc(N3CCC(C#N)CC3)c3cc(C(=O)N4CCOCC4)ccc3n2)C(=O)c2ccccc21 [US20250091994, Example 87]",2100
10,"CC(=O)N1CCN(c2cc(/C=C3/C(=O)c4ccccc4N3C(C)=O)nc3ccc(C(=O)N4CCOCC4)cc23)CC1 [US20250091994, Example 90]",1400
11,"CC(=O)N1C(=Cc2cc(-c3ccc(Oc4ccccc4)cc3)c3cc(C(=O)N4CCOCC4)ccc3n2)C(=O)c2ccccc21 [US20250091994, Example 92]",2800
12,"CC(=O)N1C(=Cc2cc(-c3cccnc3-c3ccccc3)c3cc(C(=O)N4CCOCC4)ccc3n2)C(=O)c2ccccc21 [US20250091994, Example 94]",660
13,"COCC(O)CN1CCN(C(=O)c2ccc3nc(/C=C4/C(=O)c5ccccc5N4C(C)=O)cc(-c4ccccc4-c4ccccc4)c3c2)CC1 (configuration not stated) [US20250091994, Example 96]",350
14,"CC(=O)N1C(=Cc2cc(-c3ccccc3-c3ccccc3)c3cc(C(=O)NC4CCN(C5COC5)CC4)ccc3n2)C(=O)c2ccccc21 [US20250091994, Example 97]",510
15,"CC(=O)N1/C(=C/c2nc3cc(C(=O)N4CC(C)OC(C)C4)ccc3s2)C(=O)c2ccccc21 (configuration not stated) [US20250091994, Example 99]",780
16,"CC(=O)N1/C(=C/c2nc3ccc(C(=O)N4CC(C)OC(C)C4)cc3s2)C(=O)c2ccccc21 (configuration not stated) [US20250091994, Example 101]",780
